Assay results taken from patent US10131679B2, “Substituted dihydropyrrolopyrazole compound” (UBE INDUSTRIES, LTD., priority 2014, dated 2018).

Experiments:
CDK7 = target: T1, CDK7 (Homo sapiens, UniProt P50613); test: CDK7 enzyme inhibition test; type: biochemical; conditions: Ki=IC50/(1+S/Km); 33P bound to MBP, [γ-33P]ATP, 30° C. for 20 minutes; read-out: Ki value of CDK7 inhibitory activity
T1 construct: purchased Carna Biosciences, Inc. 04-108
How it was run: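 Recombinant CDK7 with MBP substrate and [γ-33P]ATP (500 μM solution, diluted into the mix) in HEPES pH 7.4/DTT/Triton X-100/MgCl2, 20 min at 30 °C. TCA-precipitated 33P-MBP counted by scintillation; IC50 from inhibition, Ki = IC50/(1+S/Km).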

CDK2 = target: T2, CDK2 (Homo sapiens, UniProt P24941); test: CDK2 enzyme inhibition test; type: biochemical; conditions: Ki=IC50/(1+S/Km); 33P bound to MBP, [γ-33P]ATP, 30° C. for 20 minutes; read-out: Ki value of CDK2 inhibitory activity
T2 construct: purchased Invitrogen Corp. PV3267
Protocol: CDK2 Enzyme Inhibition Test
The preparation of a buffer solution was performed by mixing a HEPES buffer solution (pH 7.4), DTT, Triton X-100, and MgCl2. A 500 μM [γ-^33P]ATP solution was used by diluting a 10 mM ATP solution and a commercially available [γ-^33P]ATP solution (manufactured by PerkinElmer, Inc., Code No. NEG-302H) with the buffer solution. A CDK2 solution was used by diluting commercially available CDK2 (manufactured by Invitrogen Corp., Catalog No. PV3267) with the buffer solution. A substrate solution was used by diluting MBP with the buffer solution. As for the preparation of a reaction solution, the buffer solution, the 500 μM [γ-^33P]ATP solution, the CDK2 solution, and the substrate solution were mixed at 4° C. to obtain a reaction solution.
(§1) CDK2 enzyme reaction was performed by adding 5 μL of a test compound solution prepared with 10% DMSO/90% injectable distilled water, and 45 μL of the reaction solution in a 1.5 mL microtube at 4° C. and reacting in the microtube at 30° C. for 20 minutes in a water bath incubator. After the reaction, a 10% aqueous TCA solution was added to each microtube while cooled to 4° C., and mixed to terminate the reaction. The resultant was left standing at 4° C. for 10 minutes and then centrifuged in a centrifuge, and the supernatant was discarded. Next, a 2% aqueous TCA solution was added, mixed thereto, and then centrifuged in a centrifuge, and the supernatant was discarded. This washing operation was performed twice. After the washing, precipitates were dissolved in a 1 N aqueous NaOH solution, and the radioactivity was measured with a liquid scintillation counter.
The calculation of the inhibitory activity of the test compound against CDK2 was performed as a test compound concentration inhibiting 50% of the amount of ^33P bound to MBP (IC50 value) by using EXSUS (version 8.0.0 or version 8.0.1, manufactured by CAC Exicare Corp.).
(§2) The calculation of a Ki value was performed according to the following calculation expression. S means the concentration of ATP contained in the reaction solution, and Km means a Michaelis-Menten constant. Ki=IC50/(1+S/Km)

PAK4 = target: T3, PAK4 (Homo sapiens, UniProt O96013); test: PAK4 enzyme inhibition test; type: biochemical; conditions: Ki=IC50/(1+S/Km); 33P bound to MBP, [γ-33P]ATP, 30° C. for 20 minutes; read-out: Ki value of PAK4 inhibitory activity
T3 construct: purchased Invitrogen Corp. PV4212
Protocol: PAK4 Enzyme Inhibition Test
The preparation of a buffer solution was performed by mixing a trishydroxyaminomethane buffer solution (Tris buffer solution) (pH 7.5), DTT, Triton X-100, MgCl2, ethylene glycol bis(β-aminoethyl ether)-N,N,N′,N′-tetraacetic acid (EGTA), (3-glycerol phosphate, and sodium orthovanadate(V). A 40 μM [γ-^33P]ATP solution was used by diluting a 10 mM ATP solution and a commercially available [γ-^33P]ATP solution (manufactured by PerkinElmer, Inc., Code No. NEG-302H) with the buffer solution. A PAK4 solution was used by diluting commercially available PAK4 (manufactured by Invitrogen Corp., Catalog No. PV4212) with the buffer solution. A substrate solution was used by diluting MBP with the buffer solution. As for the preparation of a reaction solution, the buffer solution, the 40 μM [γ-^33P]ATP solution, the PAK4 solution, and the substrate solution were mixed at 4° C. to obtain a reaction solution.
as §1, with “PAK4” for “CDK2”, “mixed,” for “mixed thereto,”
The calculation of the inhibitory activity of the test compound against PAK4 was performed as a test compound concentration inhibiting 50% of the amount of ^33P bound to MBP (IC50 value) by using EXSUS (version 8.0.0 or version 8.0.1, manufactured by CAC Exicare Corp.).
as §2

[1] = tested on: human large intestine cancer cell line (HCT-116); test: Human large intestine cancer (HCT-116) cell growth inhibition test; type: cell-based; conditions: 72 h, HCT-116, culture for 3 days, sulforhodamine B absorbance
How it was run: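 HCT-116 cells seeded at 1.0×10^3 cells/well in McCoy's 5a with 10% FBS, then exposed to compound (0.1% DMSO final) for 3 days. Growth measured by sulforhodamine B absorbance; IC50 derived from concentration-inhibition data.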

[2] = tested on: mouse imiquimod-induced psoriasis model; test: Ear thickening suppression test using mouse imiquimod-induced psoriasis model; type: in vivo; conditions: topical, 120 h, thickness measured on day 5, BALB/c mice, read-out: rate of inhibition of increase in right auricle thickness; for inhibition in vivo at 0.01 %: application of a 0.01% methanol solution for 4 days; for inhibition in vivo at 1 %: application of a 1% solution in methanol for 4 days
Protocol: Ear Thickening Suppression Test Using Mouse Imiquimod-Induced Psoriasis Model
An imiquimod-induced psoriasis model test was carried out by modifying the method of Leslie van der Fits et al. (J. Immunol. 182, 5836 (2009)). BALB/c mice were used (female, supplied by Charles River Laboratories Japan, Inc.) as laboratory animals. On the start day of the test, the thicknesses of the right auricles of the mice were measured with a thickness gauge (model SMD-565J manufactured by TECLOCK Corp.). A test compound solution or only a solvent was applied or orally administered, and after 60 minutes, 5 mg of imiquimod (Beselna Cream 5% manufactured by Mochida Pharmaceutical Co., Ltd.) was applied to the insides of the right auricles. The test compound solution or solvent administration and the imiquimod application were carried out for 4 days, and the thicknesses of the right auricles were measured again on day 5. When increase in the thicknesses of the right auricles of the solvent-administered group on day 5 was defined as 100%, the rate of inhibition of increase (%) at each dose of the test compound was calculated.

T1 sequence (P50613 whole entry): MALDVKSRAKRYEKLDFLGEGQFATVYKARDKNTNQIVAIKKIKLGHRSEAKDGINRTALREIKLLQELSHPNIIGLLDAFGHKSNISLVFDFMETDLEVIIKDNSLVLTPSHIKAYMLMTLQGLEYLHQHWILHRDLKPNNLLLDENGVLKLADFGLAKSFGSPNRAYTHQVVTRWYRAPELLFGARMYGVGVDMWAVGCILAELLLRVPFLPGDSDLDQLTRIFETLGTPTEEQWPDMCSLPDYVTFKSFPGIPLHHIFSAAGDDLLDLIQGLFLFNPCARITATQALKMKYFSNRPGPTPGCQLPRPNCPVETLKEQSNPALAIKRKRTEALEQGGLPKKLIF
T1 sequence (P51946 whole entry partner): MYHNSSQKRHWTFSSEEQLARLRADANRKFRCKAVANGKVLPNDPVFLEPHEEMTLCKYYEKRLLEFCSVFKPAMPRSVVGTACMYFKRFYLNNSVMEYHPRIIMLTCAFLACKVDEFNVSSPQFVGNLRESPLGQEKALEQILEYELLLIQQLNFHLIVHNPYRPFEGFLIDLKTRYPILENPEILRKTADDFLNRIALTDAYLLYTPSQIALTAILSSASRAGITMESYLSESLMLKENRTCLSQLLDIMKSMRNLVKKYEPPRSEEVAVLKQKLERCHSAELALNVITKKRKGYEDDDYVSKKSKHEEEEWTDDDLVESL
T1 sequence (P51948 whole entry partner): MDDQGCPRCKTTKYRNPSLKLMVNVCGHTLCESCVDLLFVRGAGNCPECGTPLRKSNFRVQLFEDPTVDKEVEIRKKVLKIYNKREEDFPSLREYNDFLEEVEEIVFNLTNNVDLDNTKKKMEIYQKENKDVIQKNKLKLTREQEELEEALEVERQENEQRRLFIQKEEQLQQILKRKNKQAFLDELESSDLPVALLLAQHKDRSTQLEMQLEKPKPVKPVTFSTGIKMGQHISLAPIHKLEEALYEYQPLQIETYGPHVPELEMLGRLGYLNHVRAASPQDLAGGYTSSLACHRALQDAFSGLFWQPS
T3 sequence (O96013 whole entry): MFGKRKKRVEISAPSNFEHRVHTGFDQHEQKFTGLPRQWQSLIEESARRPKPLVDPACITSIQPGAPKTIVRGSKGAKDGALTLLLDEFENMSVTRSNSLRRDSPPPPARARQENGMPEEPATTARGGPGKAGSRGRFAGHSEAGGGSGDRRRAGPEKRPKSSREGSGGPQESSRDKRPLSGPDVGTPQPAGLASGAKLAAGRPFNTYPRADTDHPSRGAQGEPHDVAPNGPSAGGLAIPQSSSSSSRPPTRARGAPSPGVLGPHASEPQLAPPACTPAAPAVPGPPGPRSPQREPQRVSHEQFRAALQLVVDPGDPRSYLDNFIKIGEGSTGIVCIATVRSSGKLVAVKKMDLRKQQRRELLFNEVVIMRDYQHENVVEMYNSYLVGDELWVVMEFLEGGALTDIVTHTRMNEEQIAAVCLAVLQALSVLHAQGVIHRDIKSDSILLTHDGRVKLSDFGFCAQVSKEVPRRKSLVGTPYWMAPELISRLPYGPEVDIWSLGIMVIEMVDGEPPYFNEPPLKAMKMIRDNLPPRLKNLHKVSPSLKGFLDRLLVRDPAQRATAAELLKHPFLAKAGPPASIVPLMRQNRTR

| Structure (SMILES) | Ki (CDK7) [µM] | Ki (CDK2) [µM] | Ki (PAK4) [µM] | IC50 [1] [µM] | inhibition in vivo at 0.01 % [2] [%] | inhibition in vivo at 1 % [2] [%] |
| --- | --- | --- | --- | --- | --- | --- |
| CC(O)CNC(=O)N1Cc2c(NC(=O)C3([Si](C)(C)C)CCC3)n[nH]c2C1(C)C (stereo not shown) [IV-442, N-(2-Hydroxypropyl)-6,6-dimethyl-3-[1-(trimethylsilyl)cyclobutanecarboxamido]-4,6-dihydropyrrolo[3,4-c]pyrazole-5(1H)-carboxamide] | ≤ 0.05 | ≥ 1 | ≥ 0.5 | ≤ 0.5 |  |  |
| CC1(C)c2[nH]nc(NC(=O)C3([Si](C)(C)C)CCC3)c2CN1C(=O)NC(CO)c1ccccn1 (stereo not shown) [IV-534, N-[2-Hydroxy-1-(pyridin-2-yl)ethyl]-6,6-dimethyl-3-[1-(trimethylsilyl)cyclobutanecarboxamido]-4,6-dihydropyrrolo[3,4-c]pyrazole-5(1H)-carboxamide] | ≤ 0.05 | ≥ 1 | ≥ 0.5 | ≤ 0.5 |  |  |
| COCC(C)(C)C(NC(=O)N1Cc2c(NC(=O)C3([Si](C)(C)C)CCC3)n[nH]c2C1(C)C)c1ccccc1 (stereo not shown) [IV-676, N-(3-Methoxy-2,2-dimethyl-1-phenylpropyl)-6,6-dimethyl-3-[1-(trimethylsilyl)cyclobutanecarboxamido]-4,6-dihydropyrrolo[3,4-c]pyrazole-5(1H)-carboxamide] |  |  |  |  | ≥ 50 |  |
| CC(C)C(NC(=O)N1Cc2c(NC(=O)C3([Si](C)(C)C)CCC3)n[nH]c2C1(C)C)C(C)(C)CO (stereo not shown) [IV-822, N-(1-Hydroxy-2,2,4-trimethylpentan-3-yl)-6,6-dimethyl-3-[1-(trimethylsilyl)cyclobutanecarboxamido]-4,6-dihydropyrrolo[3,4-c]pyrazole-5(1H)-carboxamide] | ≤ 0.05 | ≥ 1 | ≥ 0.5 | ≤ 0.5 |  |  |
| CCCCO[C@@H](C(=O)N1Cc2c(NC(=O)C3([Si](C)(C)C)CCC3)n[nH]c2C1(C)C)c1ccccc1 [IV-1200, (R)—N-[5-(2-Butoxy-2-phenylacetyl)-6,6-dimethyl-1,4,5,6-tetrahydropyrrolo[3,4-c]pyrazol-3-yl]-1-(trimethylsilyl)cyclobutanecarboxamide] |  |  |  |  | ≥ 50 |  |
| C[C@@H](Oc1ccccc1)C(=O)N1Cc2c(NC(=O)C3([Si](C)(C)C)CCC3)n[nH]c2C1(C)C [IV-1258, (R)—N-[6,6-Dimethyl-5-(2-phenoxypropanoyl)-1,4,5,6-tetrahydropyrrolo[3,4-c]pyrazol-3-yl]-1-(trimethylsilyl)cyclobutanecarboxamide] | ≤ 0.05 | ≥ 1 | ≥ 0.5 | ≤ 0.5 |  |  |
| CC(=O)OC[C@@H](NC(=O)N1Cc2c(NC(=O)C3([Si](C)(C)C)CCC3)n[nH]c2C1(C)C)c1ccccc1 [V-1442, (S)-2-{6,6-Dimethyl-3-[1-(trimethylsilyl)cyclobutanecarboxamido]-1,4,5,6-tetrahydropyrrolo[3,4-c]pyrazole-5-carboxamido}-2-phenylethyl acetate] |  |  |  |  |  | ≥ 50 |
| CCC(=O)OC[C@@H](NC(=O)N1Cc2c(NC(=O)C3([Si](C)(C)C)CCC3)n[nH]c2C1(C)C)c1ccccc1 [V-1446, (S)-2-{6,6-Dimethyl-3-[1-(trimethylsilyl)cyclobutanecarboxamido]-1,4,5,6-tetrahydropyrrolo[3,4-c]pyrazole-5-carboxamido}-2-phenylethyl propionate] |  |  |  |  |  | ≥ 50 |
| CC(C)C(=O)OC[C@@H](NC(=O)N1Cc2c(NC(=O)C3([Si](C)(C)C)CCC3)n[nH]c2C1(C)C)c1ccccc1 [V-1454, (S)-2-{6,6-Dimethyl-3-[1-(trimethylsilyl)cyclobutanecarboxamido]-1,4,5,6-tetrahydropyrrolo[3,4-c]pyrazole-5-carboxamido}-2-phenylethyl isobutanoate] |  |  |  |  |  | ≥ 50 |
| CC(C)(C)C(=O)OC[C@@H](NC(=O)N1Cc2c(NC(=O)C3([Si](C)(C)C)CCC3)n[nH]c2C1(C)C)c1ccccc1 [V-1462, (S)-2-{6,6-Dimethyl-3-[1-(trimethylsilyl)cyclobutanecarboxamido]-1,4,5,6-tetrahydropyrrolo[3,4-c]pyrazole-5-carboxamido}-2-phenylethyl pivalate] |  |  |  |  |  | ≥ 50 |
